# How the values were obtained:
# [1] = tested on: Sphaerotheca fuliginea; test: In vivo protective test, Sphaerotheca fuliginea (powdery mildew in gherkins); conditions: application rate 500 ppm, gherkin plants, evaluation 12 days after inoculation, 0% = control, 100% = no infection
# Method: Example: In vivo protective test, Sphaerotheca fuliginea (powdery mildew in gherkins) To produce an appropriate active ingredient formulation, active ingredient is mixed with acetone/Tween/DMSO and diluted with water to the appropriate concentration. Gherkin plants (cultivar: Vert petit de Paris) are cultivated in 50/50 peat/pozzolan substrate at 24° C. and sprayed at the Z11 cotyledon stage with the active ingredient formulation specified above. Plants which serve as a control are treated with an aqueous solution without active ingredient. After 24 hours, the plants are sprayed with a spore suspension of Sphaerotheca fuliginea (100 000 spores/ml). The spores are collected from infected plants. The inoculated plants are placed at 20/25° C. and at 60/70% relative humidity.
# [2] = tested on: Septoria tritici; test: In vivo protective test, Septoria tritici (blotch in wheat); conditions: application rate 500 ppm, wheat plants, evaluation 21-28 days after inoculation, 0% = control, 100% = no infection
# Method: To produce an appropriate active ingredient formulation, active ingredient is mixed with acetone/Tween/DMSO and diluted with water to the appropriate concentration. Wheat plants (cultivar: Scipion) are cultivated in 50/50 peat/pozzolan substrate at 22° C. (12 h)/20° C. (12 h) and sprayed at the 1-leaf stage (height 10 cm) with the active ingredient formulation specified above. Control plants are sprayed with an aqueous solution without added active ingredient. After 24 hours, the plants are sprayed with a spore suspension of cryopreserved Septoria tritici (500 000 spores/ml).
# [3] = tested on: Phytophthora infestans; type: in vivo; conditions: application rate 500 ppm; protective, tomato plants; evaluation 5 days after infection; 0% = control, 100% = no infection
# [4] = tested on: Botrytis cinerea; test: In vivo protective test, Botrytis cinerea (gray mold in gherkins); conditions: application rate 500 ppm, gherkin plants, evaluation 4-5 days after infection, 0% = control, 100% = no infection
# Method: To produce an appropriate active ingredient formulation, active ingredient is mixed with acetone/Tween/DMSO and diluted with water to the appropriate concentration. Gherkin plants (Vert petit de Paris) are cultivated in 50/50 peat/pozzolan substrate at 24° C. and sprayed at the Z11 stage with the active ingredient formulation specified above. Plants which serve as a control are treated with an aqueous solution without active ingredient. After 24 hours, the plants are sprayed with a spore suspension of Botrytis cinerea (50 000 spores/ml). The spores are suspended in a nutrient solution consisting of 10 g/L PDB, 50 g/L D-Fructose, 2 g/L NH4NO3 and 1 g/L KH2PO4. The inoculated gherkin plants are incubated at 17° C. and at 80% relative air humidity.
# [5] = tested on: Plasmopara viticola; test: Plasmopara test (grapevine)/protective; type: in vivo; conditions: Plasmopara viticola on grapevine, protective, active ingredient concentration 100 ppm, 6 days after inoculation
# Method: The plants are then moistened and placed in an incubation cabin for 1 day.
# [6] = tested on: Venturia inaequalis; test: Venturia test (apple)/protective; conditions: Venturia inaequalis on apple, protective, active ingredient concentration 100 ppm, 10 days after inoculation
# Method: • Solvents: 24.5 parts by weight of acetone • 24.5 parts by weight of dimethylacetamide • Emulsifier: 1 part by weight of alkylaryl polyglycol ether
# To produce an appropriate active ingredient formulation, 1 part by weight of active ingredient is mixed with the stated amounts of solvent and emulsifier, and the concentrate is diluted with water to the desired concentration.
# To test for protective efficacy, young plants are sprayed with the active ingredient formulation at the stated application rate. After the spray coating has dried on, the plants are inoculated with an aqueous conidia suspension of the apple scab pathogen Venturia inaequalis and then remain in an incubation cabin at about 20° C. and 100% relative air humidity for 1 day.
# The plants are then placed in a greenhouse at about 21° C. and a relative air humidity of about 90%.
# Evaluation follows 10 days after the inoculation.
Compound,Efficacy [%] [1],Efficacy [%] [2],Efficacy [%] [3],Efficacy [%] [4],Efficacy [%] [5],Efficacy [%] [6]
COC1(C(=O)NCc2ccc(Cl)nc2)CC(c2cc(F)cc(F)c2)=NO1 (centres unmarked) [Compound 1.11-110],78%,100%,100%,90%,,
COC(=O)CCCNC(=O)C1(OC)CC(c2cc(Br)cc(C(F)(F)F)c2)=NO1 (centres unmarked) [Compound 1.33-102],100%,100%,,,,
COC1(C(=O)NCc2cccnc2Cl)CC(c2cc(F)cc(F)c2)=NO1 (centres unmarked) [Compound 1.11-238],83%,100%,99%,100%,,
COC1(C(=O)NC2CC2)CC(c2cc(Br)cc(OC(F)(F)F)c2)=NO1 (centres unmarked) [Compound 1.32-60],100%,100%,,100%,,
COC1(C(=O)NC2(C#N)CC2)CC(c2cc(Cl)cc(Cl)c2)=NO1 (centres unmarked) [Compound 1.20-64],98%,100%,100%,70%,,
COC1(C(=O)NC2CC2)CC(c2cc(Br)cc(C(F)(F)F)c2)=NO1 (centres unmarked) [Compound 1.33-60],100%,100%,,100%,,
"COCC(C)NC(=O)C1(OC)CC(c2cc(Cl)cc(Cl)c2)=NO1 (single isomer, unassigned) [1.20-19 D2]",100%,100%,100%,100%,,
CCn1cc(CNC(=O)C2(OC)CC(c3cccc(Cl)c3)=NO2)cn1 (centres unmarked) [Compound 1.3-206],94%,100%,,,,
"COCC(C)NC(=O)C1(OC)CC(c2cc(F)cc(F)c2)=NO1 (single isomer, unassigned) [1.11-19 D1]",100%,100%,100%,100%,,
CCn1cc(CNC(=O)C2(OC)CC(c3cc(F)cc(C(F)(F)F)c3)=NO2)cn1 (centres unmarked) [Compound 1.18-206],95%,,90%,100%,,
C=CCNC(=O)C1(OC)CC(c2cc(Cl)cc(OC(F)(F)F)c2)=NO1 (centres unmarked) [Compound 1.25-16],95%,97%,,100%,,
COC1(C(=O)NCc2ccncc2)CC(c2cc(Cl)cc(Cl)c2)=NO1 (centres unmarked) [Compound 1.20-135],98%,100%,,100%,,
CCn1cc(CNC(=O)C2(OC)CC(c3cc(Br)cc(OC(F)(F)F)c3)=NO2)cn1 (centres unmarked) [Compound 1.32-206],,100%,,96%,,
COc1cc(F)cc(C2=NOC(OC)(C(=O)NCc3ccc(Cl)nc3)C2)c1 (centres unmarked) [Compound 1.16-110],89%,100%,,100%,,
COC1(C(=O)NC(C)C)CC(c2cc(Cl)cc(Cl)c2)=NO1 (centres unmarked) [Compound 1.20-5],,,,,99%,96%
COC1(C(N)=O)CC(c2cc(Br)cc(OC(F)(F)F)c2)=NO1 (centres unmarked) [Compound 1.32-1],,98%,,,,
CCOC(=O)CCNC(=O)C1(OC)CC(c2cc(F)cc(OC)c2)=NO1 (centres unmarked) [Compound 1.16-94],,,,75%,,
COC1(C(=O)NCc2ccc(Cl)nc2)CC(c2cc(Cl)cc(Cl)c2)=NO1 (centres unmarked) [Compound 1.20-110],,100%,,83%,,
COc1cccc(C2=NOC(OC)(C(=O)NCc3ccc(Cl)nc3)C2)c1 (centres unmarked) [Compound 1.7-110],,100%,,100%,,
CCn1cc(CNC(=O)C2(OC)CC(c3cc(C)cc(F)c3)=NO2)cn1 (centres unmarked) [Compound 1.14-206],98%,100%,100%,100%,,
CCOC(=O)CC(C)NC(=O)C1(OC)CC(c2cc(F)cc(OC)c2)=NO1 (centres unmarked) [Compound 1.16-96],78%,88%,,85%,,
CCOC(=O)CC(C)NC(=O)C1(OC)CC(c2cccc(CC)c2)=NO1 (centres unmarked) [Compound 1.6-96],,75%,,95%,,
CCOC1(C(=O)NCc2cnn(CC)c2)CC(c2cc(F)cc(F)c2)=NO1 (centres unmarked) [Compound 2.11-206],,83%,100%,,,
COC1(C(=O)NCc2ccnc(Cl)c2)CC(c2cc(C)cc(F)c2)=NO1 (centres unmarked) [Compound 1.14-136],,,,88%,,
COC1(C(=O)NCc2nc(C)cc(C)n2)CC(c2cc(F)cc(F)c2)=NO1 (centres unmarked) [Compound 1.11-189],,,100%,,,

# From patent US9516880B2, “Herbicidal and fungicidal 5-oxy-substituted 3-phenylisoxazoline-5-carboxamides and 5-oxy-substituted 3-phenylisoxazoline-5-thioamides” (BAYER CROPSCIENCE AG, priority 2012, dated 2016)
